Broadly, the solubility (kinetic) is solubility judged after dilution from a stock solution rather than from solid.

The values that follow come from PubChem BioAssay AID1996.

Values after ≈ are worked out from the molar mass of the structure shown.

The conditions of the series: buffer; pH 7.4; 200.0 µM.
With `CCOC(=O)C1=C(C)NC(C)=C(C(=O)OCC)C1C(=O)OCC(=O)N(C)Cc1ccccc1`, the solubility (kinetic) is 2.8 µg/mL (≈ 6.11 µM).
Then `Brc1nc(-c2ccccc2)nc(-c2ccccc2)c1Br`, with less than 0.4 µg/mL.
Consider `CC(C)(C)NC(=O)N1CCN(c2ncccc2C(F)(F)F)CC1`, for which the kinetic solubility is greater than 49.6 µg/mL.
To `COc1ccc2[nH]cc(CCNC(=O)Nc3ccccc3C)c2c1` belongs 10.4 µg/mL (≈ 32.2 µM); to `Cc1cc(Cl)c(S(=O)(=O)N2CCCC2)cc1OCC(N)=O`, greater than 49.9 µg/mL; to `CC(=O)OC(CC(=O)O)C[N+](C)(C)C.[Cl-]` (stereo not drawn), greater than 36 µg/mL.
To `CN(c1ccccc1)c1nc(N)c([N+](=O)[O-])c(NCCO)n1` belongs 42.9 µg/mL (≈ 141 µM); to `COc1ccccc1-c1c(C#N)c(N)nc2c1CCC2`, 5 µg/mL (≈ 18.8 µM).
Then `CCn1cc(C=C2C(=O)NC(=O)NC2=O)c2ccccc21`, with 1.8 µg/mL (≈ 6.35 µM); and `O=C1N(c2ccccc2)C(=Nc2ccccc2)SC12CC2`, with 41.5 µg/mL (≈ 141 µM).
The molecule `COc1ccc(S(=O)(=O)N2CCCC2)c2ccccc12` displayed a solubility (kinetic) of 0.9 µg/mL (≈ 3.09 µM).
To `Cl.Oc1ccc(-c2csc(Nc3cccc4ccccc34)n2)cc1O` belongs 15.2 µg/mL.
Turning to `O=C(O)C1C2C=CC(C2)C1C(=O)NCCCN1CCCC1=O` (stereo not drawn), the solubility (kinetic) was 44.2 µg/mL (≈ 144 µM).
Take `Nc1nc(Nc2ccc(Cl)cc2)nc(NCCO)c1[N+](=O)[O-]`: the solubility (kinetic) was determined as 3.1 µg/mL (≈ 9.55 µM). This solubility kinetic is about 14-fold lower than that of the molecule before.
Then `O=C(c1ccc(Cl)cc1)N1CCN(c2cccc3[nH]ccc23)CC1`, with 35.6 µg/mL (≈ 105 µM); and `Cc1cnc(C(=O)OCC(=O)Nc2cccc3ccccc23)cn1`, with greater than 48.2 µg/mL.
With `c1ccc2[nH]cnc2c1`, the kinetic solubility was greater than 17.7 µg/mL.
Turning to `CCc1cccc(C)c1NC(=O)Cc1ccsc1`, the kinetic solubility was 34.9 µg/mL (≈ 135 µM).
Then `O=c1ccc2c([nH]1)CCCCCCCCCC2`, with 5.2 µg/mL (≈ 22.3 µM); and `O=C(COc1cccc2c1CCNC2=O)Nc1ccc(F)cc1`, with greater than 47.1 µg/mL.
Then `CCOC(=O)Cc1csc(NC(=O)Nc2ccc(C)cc2)n1`, with 3.8 µg/mL (≈ 11.9 µM).
To `Cc1ccc(CC(CC(=O)O)C(=O)Nc2ccc(Cl)cc2)cc1` (stereo not drawn) belongs 48.6 µg/mL (≈ 146 µM); to `CN(CCC#N)S(=O)(=O)c1cc2c3c(c1)CCN3C(=O)CC2`, greater than 47.9 µg/mL.
The molecule `CN(C)c1cccc(C(=O)Nc2ccc(S(=O)(=O)Nc3nccs3)cc2)c1` yielded a solubility (kinetic) greater than 60.4 µg/mL.
Then `Cc1ccccc1CN1CCN(CC(=O)NC(C)c2ccccc2)CC1` (stereo not drawn), with 47.8 µg/mL (≈ 136 µM).
Then `O=C(Nc1ccc2c(c1)OCO2)c1cnccn1`, with 19.5 µg/mL (≈ 80.2 µM).
Molecule `Nc1nc(Cl)nc2ncn(Cc3ccccc3)c12` had a solubility (kinetic) greater than 39 µg/mL.
To `COc1ccc(/C=N/NC(=O)c2cccnc2)c(C(=O)O)c1OC` belongs greater than 49.4 µg/mL; to `Cc1cccc(NC(=O)c2ccc(NCCO)c([N+](=O)[O-])c2)n1`, 3.4 µg/mL (≈ 10.7 µM).
To `COc1cccc(NC(=O)N2C3CCCC2CC(NC(C)=O)C3)c1` (stereo not drawn) belongs greater than 49.7 µg/mL; to `CS(=O)(=O)Nc1ccc(C(=O)Nc2ccc3ccccc3c2)cc1`, less than 0.4 µg/mL; to `Cc1ccc(F)cc1NC(=O)N1CCCN(C(=O)OC(C)(C)C)CC1`, 46.9 µg/mL (≈ 133 µM).
`CC(C)N(Cc1ccccc1)C(=S)Nc1cccnc1` displayed a solubility (kinetic) greater than 42.8 µg/mL.
To `Cl.c1ccc2c(c1)CC(N1CCCCC1)c1ccccc1S2` (stereo not drawn) belongs 1.8 µg/mL; to `O=S(=O)(Nc1ccc(O)c2ccccc12)c1cccs1`, 24.9 µg/mL (≈ 81.5 µM).
Then `COc1cc(CNC(=O)c2cnc(C)cn2)cc(OC)c1`, with greater than 43.1 µg/mL; and `N=C1C(c2nc3ccccc3[nH]2)=C(O)CN1C1CCCCC1`, with 0.4 µg/mL (≈ 1.35 µM); and `COC(=O)CCSC(=S)N1CCOCC1`, with greater than 37.4 µg/mL.
To `Cc1ccc(CNC(=O)c2ccc3c(c2)NC(=O)CS3)cc1` belongs 3.1 µg/mL (≈ 9.92 µM); to `COc1ccccc1/C=C/C(=O)Nc1cccnc1Cl`, 2.7 µg/mL (≈ 9.35 µM); to `O=c1[nH]c2c(Br)cnc([N+](=O)[O-])c2[nH]1`, greater than 38.9 µg/mL.
In turn, `C/C(CC(=O)Nc1cc(C)ccn1)=N\NC(=O)c1ccccc1C` had a kinetic solubility greater than 48.7 µg/mL.
To `CCC(C)c1ccccc1NC(=O)COC(=O)C1=NN(c2ccccc2)C(=O)CC1` (stereo not drawn) belongs greater than 61.1 µg/mL; to `O=c1[nH]sc2ccccc12`, 21.7 µg/mL (≈ 144 µM); to `CCOC(=O)C1=C(C)NC(=O)NC1/C=C/c1ccccc1OC` (stereo not drawn), 2.6 µg/mL (≈ 8.22 µM).
To `CNS(=O)(=O)c1cc(Nc2ncnc3sccc23)ccc1C` belongs 2.5 µg/mL (≈ 7.48 µM).
As for `O=C(OCC(=O)c1ccc(Cl)cc1Cl)c1cnccn1`, the kinetic solubility is greater than 46.7 µg/mL.
`N/C(=N\O)c1ccc([N+](=O)[O-])s1` returned a solubility (kinetic) greater than 28.1 µg/mL.
Consider `O=C(CS(=O)(=O)c1ccc(F)cc1)N1CCOCC1`, for which the kinetic solubility was greater than 43.1 µg/mL.
`COC(=O)CNC(=O)COC(=O)/C=C/c1cccs1` had a solubility (kinetic) greater than 42.5 µg/mL.
To `Cc1ccc2[nH]c(=O)c(CN(C(=O)c3cccc([N+](=O)[O-])c3)C(C)(C)C)cc2c1` belongs 2.9 µg/mL (≈ 7.37 µM); to `COc1ccc(NS(=O)(=O)c2cc(NC(=O)[C@H](C)NC(N)=O)ccc2N2CCCC2)cc1`, greater than 69.2 µg/mL; to `Cc1ccc2nc(-c3ccncc3)cc(C(=O)Nc3ccncc3)c2c1`, 3.5 µg/mL (≈ 10.3 µM).
Then `Cc1ccc(OCC(=O)NCCc2c[nH]c3ccccc23)cc1`, with 4.9 µg/mL (≈ 15.9 µM); and `Cc1[nH]c(=S)c(C#N)c(C)c1Cc1ccccc1`, with 8.6 µg/mL (≈ 33.8 µM).
Then `COc1ccc(CNC(=O)COc2ccc(F)cc2)cc1`, with greater than 43.4 µg/mL; and `O=C(N1CCN(S(=O)(=O)c2ccc(Cl)cc2)CC1)n1ccnc1`, with 52.8 µg/mL (≈ 149 µM).
For the molecule `c1ccc2[nH]c(SCC3CCCCO3)nc2c1` (stereo not drawn), the solubility (kinetic) was greater than 37.3 µg/mL.
As for `CCCCCC1CCC(C(=O)NCCN2CCOCC2)CC1` (stereo not drawn), the solubility (kinetic) was 35.6 µg/mL (≈ 115 µM).
Then `Cc1ccc(C(=O)O)cc1NCc1ccncc1`, with greater than 36.3 µg/mL; and `CC(C)CCC1(CCNC(=O)c2cccs2)CCOC(C)(C)C1` (stereo not drawn), with 22.4 µg/mL (≈ 66.4 µM).
The molecule `O=C1/C(=C/c2ccccn2)SC(=S)N1c1cccc(O)c1` yielded a solubility (kinetic) of 0.4 µg/mL (≈ 1.27 µM).
Then `CCN(CC)C(=O)CSc1nnc([C@@H](N)C(C)C)o1.Cl`, with greater than 48.4 µg/mL; and `CCC(NC(C)C)C(O)c1ccc(O)c(O)c1.CS(=O)(=O)O` (stereo not drawn), with greater than 50.3 µg/mL.
To `CC1CC(C)(C)NC(=S)N1CC(=O)NCc1ccc2c(c1)OCO2` (stereo not drawn) belongs 36.2 µg/mL (≈ 104 µM); to `O=C(O)c1ccc2c(c1)C(=O)N(CCc1ccccc1)C2=O`, greater than 44.3 µg/mL; to `CN1C[C@@H]2C[C@@H](c3cccn3-c3ccccn3)N3CCC[C@@]23C1=O`, greater than 48.4 µg/mL.
`CCc1nc(Nc2cccc(O)c2)c2oc3ccccc3c2n1.Cl` yielded a solubility (kinetic) of 0.5 µg/mL.
For `Cc1ccc(NC2Sc3ccccc3NC2=O)cc1` (stereo not drawn), the kinetic solubility is 9.6 µg/mL (≈ 35.5 µM).
Then `O=C(COC(=O)C1=COCCO1)NCc1ccc(F)cc1`, with 40.3 µg/mL (≈ 136 µM); and `Cc1ccc(C)c(CN2C(=O)NC3(CCCCCC3)C2=O)c1`, with 3.7 µg/mL (≈ 12.3 µM).
To `COc1ccc(CCNC(=S)NC(=O)c2ccccc2)cc1C` belongs 0.8 µg/mL (≈ 2.44 µM); to `O=C(O)Cn1c(O)c(C2=c3ccccc3=NC2=O)sc1=O`, 39.4 µg/mL (≈ 129 µM).
`O=C1ON=C(c2ccc([N+](=O)[O-])cc2)/C1=C/c1ccccc1O` displayed a kinetic solubility greater than 46.5 µg/mL.
Then `COc1ccccc1-c1cc(C(=O)N2CCCc3ccccc32)no1`, with 3.1 µg/mL (≈ 9.27 µM); and `O=C(O)C(=O)O.O=S(=O)(c1cccc(C(F)(F)F)c1)N1CCN(CC(O)COCc2ccccc2)CC1` (stereo not drawn), with greater than 82.3 µg/mL; and `O=C(O)C(Cc1ccc(O)cc1)N1C(=O)C2CCCCC2C1=O` (stereo not drawn), with greater than 47.6 µg/mL.
In turn, `O=C(NC(=S)NC12CC3CC(CC(C3)C1)C2)c1ccc(F)cc1` registered a solubility (kinetic) of 2.3 µg/mL (≈ 6.92 µM).
Take `C/C=C/C(=O)OCc1csc(CC(=O)Nc2ccccc2C)n1`: the solubility (kinetic) was greater than 49.6 µg/mL.
To `Cc1ccccc1N=C1NC(=O)/C(=C/c2cccn2C)S1` belongs 3.3 µg/mL (≈ 11.1 µM); to `O=C1CC(N2CCN(S(=O)(=O)c3ccccc3F)CC2)C(=O)N1c1ccc(F)cc1F` (stereo not drawn), greater than 68 µg/mL; to `Cn1cc([N+](=O)[O-])c(C(=O)NCc2ccco2)n1`, greater than 37.5 µg/mL.
As to `CC(C)(C)C(=O)/C(C#N)=C/c1cccs1`, the solubility (kinetic) came to 10.9 µg/mL (≈ 49.7 µM).
The molecule `CN(Cc1nc(-c2cccs2)no1)CC1(N2CCOCC2)CCCCC1` returned a solubility (kinetic) of 38.7 µg/mL (≈ 103 µM).
On to `CCN1CCN(c2ccc(S(=O)(=O)N3CCOCC3)cc2N)CC1`, for which the solubility (kinetic) was greater than 53.2 µg/mL.
`CCOC(=O)c1sc(=NC(=O)COc2ccccc2)n(C)c1C` yielded a kinetic solubility of 1.4 µg/mL (≈ 4.19 µM).
Turning to `CN(Cc1nc2ccccc2n1C)c1ccccc1`, the solubility (kinetic) was greater than 37.7 µg/mL.
`CCOc1ccc(C(=O)NCC2CCN(CC3CCCCC3)CC2)cc1` showed a solubility (kinetic) greater than 53.8 µg/mL.
As to `Clc1ccccc1OCCCCN1CCNCC1.O=C(O)C(=O)O`, the kinetic solubility is greater than 53.8 µg/mL.
To `O=C(c1cccs1)N1CCN(c2ccc(Cl)cc2)CC1` belongs 39.2 µg/mL (≈ 128 µM).
As to `CCOC(=O)CSc1nc2ccccc2n2c(C)nnc12`, the kinetic solubility is greater than 45.4 µg/mL.
To `N#CC1(NC(=O)CSc2ccccn2)CCCCC1` belongs greater than 41.3 µg/mL; to `O=C(Cc1ccccc1[N+](=O)[O-])NCCc1ccc(F)cc1`, 44.6 µg/mL (≈ 148 µM); to `COc1ccc(C2C(C#N)=C(N)Oc3cc(N)ccc32)cc1` (stereo not drawn), 27.4 µg/mL (≈ 93.4 µM).
As for `Cc1ccc(NC(=O)c2ccc(C(=O)c3ccccc3)cc2)nc1`, the kinetic solubility was 5.1 µg/mL (≈ 16.1 µM).
For the molecule `Cc1cccc(OCCCn2c(=O)oc3ccc(C)cc32)c1`, the kinetic solubility was found to be 3.3 µg/mL (≈ 11.1 µM).
`CN1C(C(=O)Nc2ncccn2)=C(O)c2ccccc2S1(=O)=O` had a kinetic solubility greater than 49.8 µg/mL.
For `COc1ccc(C(=O)Nc2ccc(CN3CCOCC3)cc2)cc1Br`, the kinetic solubility worked out at 14.1 µg/mL (≈ 34.8 µM).
Take `N#CCCN(C(=O)CSc1nc2ccccc2c(=O)[nH]1)c1ccc(F)cc1`: the solubility (kinetic) is greater than 57.4 µg/mL.
Turning to `CCOc1ccc(C(=O)NCc2ccco2)cc1OC`, the kinetic solubility came to 37.7 µg/mL (≈ 137 µM).
To `O=C1CCC(=O)N1c1ccccc1` belongs greater than 26.3 µg/mL.
To `O=S(=O)(c1ccc(Cl)cc1)N1CCN(Cc2cccnc2)CC1` belongs 49.4 µg/mL (≈ 140 µM); to `O=C(NC1CCCC1)c1cc(-c2ccccc2)on1`, 4 µg/mL (≈ 15.6 µM).
